Several values for one entry are separate records, joined by “and”; a condition that tells them apart may be missing. Identical values can stand only once.
Test system: 885724-159-R-J1-PDC KRAS PDC multicell spheroid viability
Experiment: Anticancer human tumor 885724-159-R-J1-PDC patient-derived pancreatic adenocarcinoma cell line growth inhibition [KRAS2]
Details: for viability, T/C: stronger effect = lower value
From the text: Multicellular complex tumor spheroid response to RAS pathway inhibitors in combination with a targeted agents in patient-derived cell lines with oncogenic KRAS variants from multiple cancer types
A high-throughput screen of multi-cell type tumor spheroids was designed to identify active combinations of targeted small molecules and KRAS pathway inhibitors. Complex spheroids include a stromal component modeled by human endothelial cells (HUVEC) and fibroblasts modeled by human mesenchymal stem cells (MSCs). The concentration ranges selected for each drug and investigational agent were based upon clinically achievable concentrations if the clinical Cmax of the agent was known.
Compounds. The drugs and investigational agents: BI-3406 (NSC825286), BAY-293 (NSC824723), batoprotafib (TNO155; NSC825523), sotorasib (AMG 510; NSC818433), MRTX1257 (NSC819558), elimusertib (BAY 1895344; NSC800525), molibresib (GSK525762; NSC774829), temuterkib (LY3214996; NSC803410), venetoclax (NSC766270), alisertib (NSC759677), olaparib (NSC753686), talazoparib (NSC767125), erdafitinib (NSC781556), ipatasertib (NSC767898), cabozantinib (NSC761068), nintedanib (NSC756659), abemaciclib (NSC768073), docetaxel (NSC628503), trametinib (NSC758246), and sapanisertib (NSC764658) were obtained from the National Cancer Institute (NCI) Developmental Therapeutics Program Chemical Repository. The FDA-approved anticancer drug set is available from the Developmental Therapeutics Program. […] The stock solutions were prepared in dimethyl sulfoxide (DMSO, Sigma-Aldrich, St. Louis, MO, cat. D2650) at 800-fold the tested concentration and stored at -70 degrees C prior to their use. All drugs and investigational agents were tested over a range starting from a high concentration at or near the clinical Cmax and decreasing in half-log increments. If the clinical Cmax for an agent had not been determined, the highest concentration tested was 10 microM.
Cell Culture. All cells were maintained in an incubator at 37 degrees C and 5% CO2 with 95% humidity. The PDC lines were cultured according to standard operating procedures established by the NCI PDMR (https://pdmr.cancer.gov/sops/default.htm). Briefly, all PDCs were thawed and cultured in Matrigel-coated flasks prepared with a working solution of 1X Ham's F-12 nutrient mix, without supplementation (Invitrogen, Waltham, MA, cat. 11765054), 100 U/mL penicillin-streptomycin (Invitrogen, cat. 15140122), and 2.5% Matrigel (Corning Inc., Corning, NY, cat. 354248) for the first three passages. All PDCs were cultured in complete DMEM/F-12 media containing advanced DMEM/F-12 (Invitrogen, cat. 12634028), 4.9% defined fetal bovine serum, heat inactivated (HyClone Laboratories Inc., Logan, UT, cat. SH30070.03HI), 389 ng/mL hydrocortisone (Sigma-Aldrich, cat. H4001), 9.7 ng/mL human EGF recombinant protein (Invitrogen, cat. PHG0313), 23.4 microg/mL adenine (Sigma-Aldrich, cat. A2786), 97.3 U/mL penicillin-streptomycin (Invitrogen, cat. 15140122), 1.9 mM L-glutamine (Invitrogen, cat. 25030081), and 9.7 microM Y-27632 dihydrochloride (Tocris Bioscience, Bristol, United Kingdom, cat. 1254). The PDCs were cultured in complete DMEM/F12 media without 9.7 microM Y-27632 dihydrochloride for at least two passages prior to the screen. The established cell line HOP-62 was cultured in RPMI 1640 medium, HEPES (Invitrogen, cat. 22400105) with 10% defined fetal bovine serum (HyClone Laboratories Inc., cat. SH30070.03) and 2 mM L-glutamine (Invitrogen, cat. 25030081). The pooled donor HUVEC were cultured in endothelial cell growth medium 2 (PromoCell, Heidelberg, Germany, cat. C-22011) and the hMSC were cultured in mesenchymal stem cell growth medium 2 (PromoCell, cat. C-28009). For all experiments, HUVEC and hMSC were used at passages </=5, while the malignant cell lines were used at passages </=15. […]

[1] = compound alone, run of 08/19/2021
[2] = compound alone, run of 08/26/2021
[3] = compound alone, run of 09/02/2021
[4] = curve of first compound, second compound 0.1 µM
[5] = curve of first compound, second compound 0.316 µM
[6] = curve of first compound, second compound 1 µM
[7] = curve of first compound, second compound 3.16 µM
[8] = curve of first compound, second compound 10 µM
[9] = second compound 0.1 µM, first compound 0.01 µM
[10] = second compound 0.1 µM, first compound 0.0316 µM
[11] = second compound 0.1 µM, first compound 0.1 µM
[12] = second compound 0.1 µM, first compound 0.316 µM
[13] = second compound 0.1 µM, first compound 1 µM
[14] = second compound 0.1 µM, first compound 3.16 µM
[15] = second compound 0.316 µM, first compound 0.01 µM
[16] = second compound 0.316 µM, first compound 0.0316 µM
[17] = second compound 0.316 µM, first compound 0.1 µM
[18] = second compound 0.316 µM, first compound 0.316 µM
[19] = second compound 0.316 µM, first compound 1 µM
[20] = second compound 0.316 µM, first compound 3.16 µM
[21] = second compound 1 µM, first compound 0.01 µM
[22] = second compound 1 µM, first compound 0.0316 µM
[23] = second compound 1 µM, first compound 0.1 µM
[24] = second compound 1 µM, first compound 0.316 µM
[25] = second compound 1 µM, first compound 1 µM
[26] = second compound 1 µM, first compound 3.16 µM
[27] = second compound 3.16 µM, first compound 0.01 µM
[28] = second compound 3.16 µM, first compound 0.0316 µM
[29] = second compound 3.16 µM, first compound 0.1 µM
[30] = second compound 3.16 µM, first compound 0.316 µM
[31] = second compound 3.16 µM, first compound 1 µM
[32] = second compound 3.16 µM, first compound 3.16 µM
[33] = second compound 10 µM, first compound 0.01 µM
[34] = second compound 10 µM, first compound 0.0316 µM
[35] = second compound 10 µM, first compound 0.1 µM
[36] = second compound 10 µM, first compound 0.316 µM
[37] = second compound 10 µM, first compound 1 µM
[38] = second compound 10 µM, first compound 3.16 µM
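Note: spheroids exposed to agents for 7 days before readout.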

For `C=CC(=O)N1CCN(c2nc(=O)n(-c3c(C)ccnc3C(C)C)c3nc(-c4c(O)cccc4F)c(F)cc23)C(C)C1` (configuration not stated), the viability, T/C (compound 0.1 µM) was 107% [middle of 15 runs], the viability, T/C (compound 0.316 µM) was 107% [middle of 15 runs] and the viability, T/C (compound 1 µM) was 106% [middle of 15 runs]. The IC50 [1] was > 10 µM, the IC50 [2] was > 10 µM and the IC50 [3] was > 10 µM.
`CNCc1ccccc1-c1csc(C(C)Nc2nc(C)nc3cc(OC)c(OC)cc23)c1` (configuration not stated) was tested, and the viability, T/C (compound 0.1 µM) was 101% [middle of 15 runs], the viability, T/C (compound 0.316 µM) was 101% [middle of 15 runs] and the viability, T/C (compound 10 µM) was 0.23% [middle of 13 runs]. The IC50 [2] was 1.65 µM [middle of 5 runs] and the IC50 [3] was 1.6 µM and 1.72 µM and 1.8 µM.
In the case of `COc1cc2nc(C)nc(NC(C)c3cc(N)cc(C(F)(F)F)c3)c2cc1OC1CCOC1` (configuration not stated), the IC50 [1] is reported as > 10 µM and 8.35 µM and 7.91 µM.
In the case of `CC(=O)OC12COC1CC(O)C1(C)C(=O)C(O)C3=C(C)C(OC(=O)C(O)C(NC(=O)OC(C)(C)C)c4ccccc4)CC(O)(C(OC(=O)c4ccccc4)C21)C3(C)C` (configuration not stated) + C=CC(=O)N1CCN(c2nc(=O)n(-c3c(C)ccnc3C(C)C)c3nc(-c4c(O)cccc4F)c(F)cc23)C(C)C1, the IC50 [4] is reported as > 3.16 µM, the IC50 [5] is reported as > 3.16 µM and the IC50 [6] is reported as > 3.16 µM. For the same molecule, the IC50 [7] was > 3.16 µM, the IC50 [8] was > 3.16 µM and the viability, T/C [9] was 91.7%. It also gave a viability, T/C [10] of 104%, a viability, T/C [11] of 95.5% and a viability, T/C [12] of 107%. It also gave a viability, T/C [13] of 110%, a viability, T/C [14] of 112% and a viability, T/C [15] of 94.6%. The viability, T/C [16] was 102%, the viability, T/C [17] was 104% and the viability, T/C [18] was 112%. It also gave a viability, T/C [19] of 112%, a viability, T/C [20] of 112% and a viability, T/C [21] of 105%. The viability, T/C [22] was 119%, the viability, T/C [23] was 114% and the viability, T/C [24] was 103%. The viability, T/C [25] was 119%, the viability, T/C [26] was 125% and the viability, T/C [27] was 99.1%. The viability, T/C [28] was 114%, the viability, T/C [29] was 113% and the viability, T/C [30] was 112%. For the same molecule, the viability, T/C [31] was 111%, the viability, T/C [32] was 121% and the viability, T/C [33] was 80.8%. For the same molecule, the viability, T/C [34] was 84.1%, the viability, T/C [35] was 87.7% and the viability, T/C [36] was 86%. The viability, T/C [37] was 86.6% and the viability, T/C [38] was 78.3%.
In the case of `CN(C)C/C=C/C(=O)Nc1cc2c(Nc3ccc(F)c(Cl)c3)ncnc2cc1O[C@H]1CCOC1` + C=CC(=O)N1CCN(c2nc(=O)n(-c3c(C)ccnc3C(C)C)c3nc(-c4c(O)cccc4F)c(F)cc23)C(C)C1, the IC50 [4] is reported as > 0.1 µM, the IC50 [5] is reported as > 0.1 µM and the IC50 [6] is reported as > 0.1 µM. The IC50 [7] was > 0.1 µM, the IC50 [8] was > 0.1 µM and the viability, T/C (second compound 0.1 µM, first compound 0.000316 µM) was 116%. The viability, T/C (second compound 0.1 µM, first compound 0.001 µM) was 117%, the viability, T/C (second compound 0.1 µM, first compound 0.00316 µM) was 106% and the viability, T/C [9] was 95.4%. For the same molecule, the viability, T/C [10] was 90.8%, the viability, T/C [11] was 79.9% and the viability, T/C (second compound 0.316 µM, first compound 0.000316 µM) was 124%. For the same molecule, the viability, T/C (second compound 0.316 µM, first compound 0.001 µM) was 118%, the viability, T/C (second compound 0.316 µM, first compound 0.00316 µM) was 101% and the viability, T/C [15] was 101%. The viability, T/C [16] was 92.6%, the viability, T/C [17] was 86% and the viability, T/C (second compound 1 µM, first compound 0.000316 µM) was 130%. It also gave a viability, T/C (second compound 1 µM, first compound 0.001 µM) of 119%, a viability, T/C (second compound 1 µM, first compound 0.00316 µM) of 117% and a viability, T/C [21] of 110%. It also gave a viability, T/C [22] of 93.7%, a viability, T/C [23] of 90.8% and a viability, T/C (second compound 3.16 µM, first compound 0.000316 µM) of 114%. For the same molecule, the viability, T/C (second compound 3.16 µM, first compound 0.001 µM) was 117%, the viability, T/C (second compound 3.16 µM, first compound 0.00316 µM) was 104% and the viability, T/C [27] was 97%. The viability, T/C [28] was 101%, the viability, T/C [29] was 89.4% and the viability, T/C (second compound 10 µM, first compound 0.000316 µM) was 89.4%. For the same molecule, the viability, T/C (second compound 10 µM, first compound 0.001 µM) was 95%, the viability, T/C (second compound 10 µM, first compound 0.00316 µM) was 83.2% and the viability, T/C [33] was 78.3%. The viability, T/C [34] was 66.2% and the viability, T/C [35] was 69.4%.
For `O=C(c1cc(Cc2n[nH]c(=O)c3ccccc23)ccc1F)N1CCN(C(=O)C2CC2)CC1` + C=CC(=O)N1CCN(c2nc(=O)n(-c3c(C)ccnc3C(C)C)c3nc(-c4c(O)cccc4F)c(F)cc23)C(C)C1, the IC50 [4] was > 10 µM, the IC50 [5] was > 10 µM and the IC50 [6] was > 10 µM. The IC50 [7] was > 10 µM, the IC50 [8] was > 10 µM and the viability, T/C [10] was 117%. For the same molecule, the viability, T/C [11] was 115%, the viability, T/C [12] was 111% and the viability, T/C [13] was 113%. For the same molecule, the viability, T/C [14] was 109%, the viability, T/C (second compound 0.1 µM, first compound 10 µM) was 94.1% and the viability, T/C [16] was 124%. It also gave a viability, T/C [17] of 115%, a viability, T/C [18] of 115% and a viability, T/C [19] of 113%. It also gave a viability, T/C [20] of 108%, a viability, T/C (second compound 0.316 µM, first compound 10 µM) of 103% and a viability, T/C [22] of 121%. The viability, T/C [23] was 119%, the viability, T/C [24] was 117% and the viability, T/C [25] was 118%. For the same molecule, the viability, T/C [26] was 114%, the viability, T/C (second compound 1 µM, first compound 10 µM) was 100% and the viability, T/C [28] was 114%. It also gave a viability, T/C [29] of 119%, a viability, T/C [30] of 122% and a viability, T/C [31] of 117%. It also gave a viability, T/C [32] of 111%, a viability, T/C (second compound 3.16 µM, first compound 10 µM) of 93.5% and a viability, T/C [34] of 86%. The viability, T/C [35] was 84.8%, the viability, T/C [36] was 85.4% and the viability, T/C [37] was 79%. It also gave a viability, T/C [38] of 90.9% and a viability, T/C (second compound 10 µM, first compound 10 µM) of 71%.
